These results are taken from patent publication US9878992B2, “GDF-8 inhibitors” (Rigel Pharmaceuticals, Inc., priority 2012, dated 2018).

Each structure is given as a SMILES string.

Chain of MAP4K4 (O95819 whole entry, species assumed): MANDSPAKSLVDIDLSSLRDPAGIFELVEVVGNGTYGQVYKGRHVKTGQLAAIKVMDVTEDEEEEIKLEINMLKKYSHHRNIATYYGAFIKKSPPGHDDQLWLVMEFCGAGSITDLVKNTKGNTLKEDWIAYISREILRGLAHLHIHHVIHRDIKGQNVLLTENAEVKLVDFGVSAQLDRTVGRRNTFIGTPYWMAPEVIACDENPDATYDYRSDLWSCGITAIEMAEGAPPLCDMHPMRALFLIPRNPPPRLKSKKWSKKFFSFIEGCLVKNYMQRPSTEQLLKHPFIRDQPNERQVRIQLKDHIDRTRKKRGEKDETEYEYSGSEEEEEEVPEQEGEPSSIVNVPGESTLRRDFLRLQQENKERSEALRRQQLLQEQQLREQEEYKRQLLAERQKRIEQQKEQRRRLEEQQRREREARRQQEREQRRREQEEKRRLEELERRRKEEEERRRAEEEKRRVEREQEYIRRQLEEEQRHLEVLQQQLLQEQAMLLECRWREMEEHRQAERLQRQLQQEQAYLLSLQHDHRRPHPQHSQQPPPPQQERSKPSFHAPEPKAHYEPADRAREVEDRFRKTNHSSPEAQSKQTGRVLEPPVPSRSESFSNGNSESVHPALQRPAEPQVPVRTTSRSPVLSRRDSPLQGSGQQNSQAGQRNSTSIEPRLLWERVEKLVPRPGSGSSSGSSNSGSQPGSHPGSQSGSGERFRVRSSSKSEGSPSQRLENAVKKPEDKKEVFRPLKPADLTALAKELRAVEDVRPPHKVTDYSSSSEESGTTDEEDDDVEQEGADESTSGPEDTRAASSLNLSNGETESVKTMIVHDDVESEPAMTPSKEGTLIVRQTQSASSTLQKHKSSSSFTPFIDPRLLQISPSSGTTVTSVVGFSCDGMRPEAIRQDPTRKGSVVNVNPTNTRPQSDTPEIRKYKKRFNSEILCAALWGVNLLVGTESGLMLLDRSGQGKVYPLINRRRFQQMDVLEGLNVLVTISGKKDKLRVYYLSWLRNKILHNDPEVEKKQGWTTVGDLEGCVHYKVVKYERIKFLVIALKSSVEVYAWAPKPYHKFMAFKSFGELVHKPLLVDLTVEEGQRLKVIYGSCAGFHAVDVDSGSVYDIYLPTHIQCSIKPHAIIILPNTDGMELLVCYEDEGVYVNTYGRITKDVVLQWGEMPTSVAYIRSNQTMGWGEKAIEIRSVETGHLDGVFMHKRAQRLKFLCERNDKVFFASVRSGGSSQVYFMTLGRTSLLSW

The first experiment relates to GDF8 signaling. Put plainly: AlphaScreen SureFire SMAD3 (p-Ser423/425) assay, GDF8-stimulated cells. The experiment is classed as cell-based. The conditions noted are these: Mus musculus, MPC-11, inhibition of GDF8 signaling; pSMAD readout; MPC11; read-out: GDF pSMAD (MPC11). The source says: [The procedure below names another cell line; the source lists this cell line under the same test.] The p-SMAD-3 (Ser423/425) SureFire® assay has been designed to measure the phosphorylation of endogenous cellular p-SMAD-3 (Ser423/425) in cell lysates and is a system for the screening of both modulators of receptor activation (e.g. agonists and antagonists) as well as agents acting intracellularly, such as small molecule inhibitors of upstream events. The assay will measure p-SMAD-3 (Ser423/425) activation by either cloned or endogenous receptors, and can be applied to primary cells.
P-SMAD-3 (Ser423/425) SureFire® Assay Protocols
Step A: Preparation of Buffers
1× Lysis buffer: 1 ml of 5× Lysis buffer was diluted with 4 ml of sterile water. After dilution, excess 1× Lysis buffer can be frozen and thawed up to 5 times without loss in activity.
Activation buffer: The buffer was warmed slowly to 37° C. and gently mixed to re-suspend. Activation buffer can be stored at room temperature with no loss in activity.
Reaction buffer: The buffer was kept at 4° C. while in use.
AlphaScreen® Protein A IgG Kit: The kit was stored at 4° C. in the dark.
Reaction buffer+Activation buffer+AlphaScreen® Acceptor beads: Reaction buffer (40 parts), Activation Buffer (10 parts) and Acceptor beads (1 part) were mixed and the mixture was stored at room temperature and used the same day. Mixture was added to 384-well plates; excess mixture was discarded.
Dilution buffer+AlphaScreen® Donor beads: Dilution buffer (20 parts) and Donor beads (1 part) were mixed and the mixture was stored at room temperature and used the same day. Excess mixture was discarded.
Assay control samples: After reconstitution in 250 μl of water, lysates were at −20° C. in single use aliquots.
Step B: Preparation of Samples and Cells
96-well Assay Protocol for 293FT and RMS13 adherent cells can be carried out manually or in high throughput with liquid handling robots.
The cells (80 μL, of cells for 96 well plates) were plated in collagen coated tissue culture plates in RPMI or FreeStyle medium (Invitrogen) and incubated overnight. For manual analysis, 6 plates for GDF8, 6 plates for TGFβ, and optionally 6 plates for Alk5ca (ALK5 constitutively active) were used.
The compound dilution plates were prepared as follows: 12 μL of DMSO was transferred into first column of 96-well plate, and 16 μL of DMSO was transferred into columns 2-12 of the 96-well plate. 12 μL of compound solution was transferred into first column of the DMSO-containing 96-well plate. Three-fold dilution was performed up to column 10 of the DMSO-containing 96-well plate.
Step C: Treatment and Analysis
The plate containing cells were treated with compounds for about 10 minutes, and then ligand was added. GDF8 or TGFb was added to plates to stimulate. 293FL cells were stimulated for 90 minutes at 37° C.; and RMS13 cells were stimulated for 60 minutes at 37° C. The medium was then removed from the cells, and 1× Lysis Buffer (about 25 μL) was added and the plate was gently agitated on plate shaker for 5-10 minutes.
The lysate (5 μL) was then placed into 384-well shallow plates avoiding the generation of bubbles. To this, the Reaction Buffer+Activation Buffer+AlphaScreen® Acceptor beads mixture (5 μL) was added. The plate was sealed with adhesive cover and shielded from light (e.g., with metal foil), and agitated gently on plate shaker for 2 hours at room temperature.
Dilution buffer+AlphaScreen® Donor beads (2 μL) was then added, and the plate was intubated on the plate shaker for an additional 1½ hours. After completion, the plate was read on Synergy-4 or Enspire plate reader, using AlphaScreen® pSMAD3® settings.
Background: In Alpha technology, singlet oxygen from a donor bead excites a nearby acceptor bead.
Take `Fc1ccc(Cl)cc1-c1ncccc1-c1ccc2nccn2n1` [Compound 937, 6-(2-(5-Chloro-2-fluorophenyl)pyridin-3-yl)imidazo[1,2-b]pyridazine]: the IC50 came to 207 nM.

In the case of `Cc1cc(-c2ncccc2-c2ccn3ncc(C(=O)N[C@@H]4C[C@@H]5CCCN5C(C)(C)C4)c3c2)ccc1F` [Compound 745, N-((7R,8aS)-5,5-Dimethyloctahydroindolizin-7-yl)-5-(2-(4-difluoro-3-methylphenyl)pyridin-3-yl)pyrazolo[1,5-a]pyridine-3-carboxamide], the IC50 came out at 366 nM.

In the case of `[2H]C([2H])([2H])c1cccc(-c2ncccc2-c2ccc3ncc(C(C)=O)n3c2)c1` [Compound 606, 1-(6-(2-(3-(Methyl-d3)phenyl)pyridin-3-yl)imidazo[1,2-a]pyridin-3-yl)ethan-1-one], the IC50 came to 1440 nM.

Consider `Cc1cc(-c2ncc(F)cc2-c2ccc3[nH]ncc3c2)ccc1F` [Compound 10, 5-(5-Fluoro-2-(4-fluoro-3-methylphenyl)pyridin-3-yl)-1H-indazole], for which the IC50 is 535 nM.

For `Cc1cc(-c2ncccc2-c2ccc3ncnc(N4CCOCC4)c3c2)ccc1F` [Compound 385, 4-(6-(2-(4-Fluoro-3-methylphenyl)pyridin-3-yl)quinazolin-4-yl)morpholine], the IC50 was found to be 2560 nM.

Regarding `Cc1cc(-c2ncccc2-c2ccc3ncccc3c2)ccc1F` [Compound 207, 6-(2-(4-Fluoro-3-methylphenyl)pyridin-3-yl)quinoline], the IC50 was 2040 nM.

As to `Cc1cccc(-c2ncccc2-c2ccc3ncccc3c2)c1` [Compound 208, 6-(2-m-Tolylpyridin-3-yl)quinoline], the IC50 was determined as 1150 nM.

As to `Cc1cc(-c2ncccc2-c2ccc3nn(COP(=O)(O)O)cc3c2)ccc1F` [Compound 172, [5-(2-(4-Fluoro-3methylphenyl)pyridin-3-yl)-2H-indazol-2-yl]methyl dihydrogen phosphate], the IC50 was determined as 187 nM.

`COc1ncnc2ccc(-c3cccnc3-c3cccc(O)c3)cc12` [Compound 378, 3-(3-(4-Methoxyquinazolin-6-yl)pyridin-2-yl)phenol]: the IC50 worked out at 558 nM.

Take `COc1cc(-c2cnc3ccc(-c4cccnc4-c4ccc(F)c(C)c4)cn23)cc(OC)c1OC` [Compound 577, 6-(2-(4-Fluoro-3-methylphenyl)pyridin-3-yl)-3-(3,4,5-trimethoxyphenyl)imidazo[1,2-a]pyridine]: the IC50 amounted to 2260 nM.

As to `Cc1cc(-c2ncccc2-c2ccc3ncc(C(=O)N[C@@H]4C[C@@H]5CCCN5C(C)(C)C4)n3c2)ccc1F` [Compound 744, N-((7R,8aS)-5,5-Dimethyloctahydroindolizin-7-yl)-6-(2-(4-fluoro-3-methylphenyl)pyridin-3-yl)imidazo[1,2-a]pyridine-3-carboxamide], the IC50 is 968 nM.

As to `Cc1cc(-c2ncccc2-c2ccc3ncnc(OCCN4CCOCC4)c3c2)ccc1F` [Compound 425, 4-(2-((6-(2-(4-Fluoro-3-methylphenyl)pyridin-3-yl)quinazolin-4-yl)oxy)ethyl)morpholine], the IC50 was determined as 537 nM.

`Cc1cccc(-c2ncccc2-c2ccc3ncn(CCCON)c3c2)c1` [Compound 38]: the IC50 was found to be 3230 nM.

`Cc1cc(-c2ncc(CO)cc2-c2ccc3nccnc3c2)ccc1F` [Compound 222, (6-(4-Fluoro-3-methylphenyl)-5-(quinoxalin-6-yl)pyridin-3-yl)methanol]: the IC50 is 5620 nM.

A further experiment has as its target MAP4K4 (Homo sapiens, UniProt O95819). Description: MAP4K4 inhibition. The experiment is classed as biochemical.
Conditions: not given
From the text: Such compounds are particularly useful in muscle disorders, such as cachexia and sarcopenia as MAP4K4 acts as a suppressor of skeletal muscle differentiation. See, Wang M, Amano S U, Flach R J, Chawla A, Aouadi M, Czech P. Molecular and cellular biology. 2013 February; 33(4): 678-87.
`Nc1ncnc2ccc(-c3cccnc3-c3ccc(F)c(Cl)c3)cc12` [Compound 448, 6-(2-(3-Chloro-4-fluorophenyl)pyridin-3-yl)quinazolin-4-amine] showed an IC50 below 500 nM.

Take `Nc1ncnc2ccc(-c3cccnc3-c3cccc(O)c3)cc12` [Compound 456, 3-(3-(4-Aminoquinazolin-6-yl)pyridin-2-yl)phenol]: the IC50 is below 500 nM.

`Cc1cc(-c2ncccc2-c2ccc3[nH]ncc3c2)ccc1F` [Compound 63, 5-(2-(4-Fluoro-3-methylphenyl)pyridin-3-yl)-1H-indazole] displayed an IC50 below 500 nM.

Regarding `O=c1nc[nH]c2ccc(-c3cccnc3-c3cccc(Cl)c3)cc12` [Compound 389, 6-(2-(3-Chlorophenyl)pyridin-3-yl)quinazolin-4(1H)-one], the IC50 is below 500 nM.

Compound `Nc1ncnc2ccc(-c3cccnc3-c3cc(O)cc(F)c3)cc12` [Compound 494, 3-(3-(4-Aminoquinazolin-6-yl)pyridin-2-yl)-5-fluorophenol] returned an IC50 below 500 nM.

In the case of `Nc1ncnc2ccc(-c3cccnc3-c3cc(F)cc(Cl)c3)cc12` [Compound 460, 6-(2-(3-Chloro-5-fluorophenyl)pyridin-3-yl)quinazolin-4-amine], the IC50 was below 500 nM.

With `Nc1ncnc2ccc(-c3cccnc3-c3cc(Cl)ccc3F)cc12` [Compound 818, 6-(2-(5-Chloro-2-fluorophenyl)pyridin-3-yl)quinazolin-4-amine], the IC50 was below 500 nM.
